From PubChem BioAssay AID248 (DTP/NCI, 2004)
Where “and” joins values, the source holds several entries; their conditions need not be identical. Identical values can stand only once. Toxic doses and inconclusive results are not listed. Rule as the data show it: active = T/C of 150% or more; inactive = T/C below 125%.

System: L1210 leukemia ip in BDF1 mice, survival T/C
Assay: NCI In Vivo Anticancer Drug Screen. Data for tumor model L1210 Leukemia (intraperitoneal) in B6D2F1 (BDF1) mice
Conditions: endpoint: mean survival time, higher = longer survival
Summary of the method: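 Tumor was transplanted into mice, which were then dosed with test compound or vehicle alone. Survival was recorded for each group, and the treated figure was expressed relative to the control figure.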

[1] = dose: 25.0 mg/kg/injection, schedule: Q04DX002 (ip), vehicle: saline with Tween-80
[2] = dose: 100.0 mg/kg/injection, schedule: Q04DX002 (ip), vehicle: saline with Tween-80
[3] = dose: 100.0 mg/kg/injection, schedule: Q04DX003 (ip), vehicle: saline with Tween-80
[4] = dose: 200.0 mg/kg/injection, schedule: Q04DX003 (ip), vehicle: saline with Tween-80
[5] = dose: 400.0 mg/kg/injection, schedule: Q04DX003 (ip), vehicle: saline with Tween-80
[6] = dose: 100.0 mg/kg/injection, schedule: Q01DX009 (ip), vehicle: saline with Tween-80
[7] = dose: 200.0 mg/kg/injection, schedule: Q01DX009 (ip), vehicle: saline with Tween-80
[8] = dose: 400.0 mg/kg/injection, schedule: Q01DX009 (ip), vehicle: saline with Tween-80
[9] = dose: 100.0 mg/kg/injection, schedule: Q01DX001 (ip), vehicle: saline
[10] = dose: 200.0 mg/kg/injection, schedule: Q01DX001 (ip), vehicle: saline
[11] = dose: 400.0 mg/kg/injection, schedule: Q01DX001 (ip), vehicle: saline
[12] = dose: 100.0 mg/kg/injection, schedule: Q04DX003 (ip), vehicle: Klucel (hydroxypropylcellulose) (HPC)
[13] = dose: 100.0 mg/kg/injection, schedule: Q01DX001 (ip), vehicle: carboxymethylcellulose (CMC)
[14] = dose: 200.0 mg/kg/injection, schedule: Q01DX001 (ip), vehicle: carboxymethylcellulose (CMC)
[15] = dose: 400.0 mg/kg/injection, schedule: Q01DX001 (ip), vehicle: carboxymethylcellulose (CMC)
[16] = dose: 100.0 mg/kg/injection, schedule: Q04DX002 (ip), vehicle: saline
[17] = dose: 200.0 mg/kg/injection, schedule: Q04DX002 (ip), vehicle: saline
[18] = dose: 400.0 mg/kg/injection, schedule: Q04DX002 (ip), vehicle: saline
[19] = dose: 200.0 mg/kg/injection, schedule: Q04DX003 (ip), vehicle: Klucel (hydroxypropylcellulose) (HPC)
[20] = dose: 400.0 mg/kg/injection, schedule: Q04DX003 (ip), vehicle: Klucel (hydroxypropylcellulose) (HPC)
[21] = dose: 200.0 mg/kg/injection, schedule: Q04DX002 (ip), vehicle: saline with Tween-80
[22] = dose: 400.0 mg/kg/injection, schedule: Q04DX002 (ip), vehicle: saline with Tween-80

Measured: T/C

CCCCSP(=O)(c1ccccc1)N1CCCCC1 (stereo not given)
inactive: [1] 100 % of control | dose: 50.0 mg/kg/injection, schedule: Q04DX002 (ip), vehicle: saline with Tween-80 92 % of control | [2] 92 % of control and 97 % of control

CNC(C)(C)C
inactive: [3] 93 % of control | [4] 93 % of control | [5] 86 % of control

CCCCOC(=O)c1ccc(OC(=O)NC)cc1
inactive: [6] 107 % of control | [7] 101 % of control | [8] 112 % of control

CC(=O)OCCN1CCN(CCOC(C)=O)CC1
inactive: [9] 96 % of control | [10] 102 % of control | [11] 94 % of control

NC(N)=NC(N)=Nc1ccc(Cl)cc1
inactive: [12] 103 % of control

N=C(N)Sc1cnc2ccccc2n1
inactive: [9] 95 % of control | [10] 97 % of control | [11] 105 % of control

O=C(CCN1CC1)OCCCl
inactive: dose: 50.0 mg/kg/injection, schedule: Q01DX001 (ip), vehicle: Klucel (hydroxypropylcellulose) (HPC) 112 % of control | dose: 100.0 mg/kg/injection, schedule: Q01DX001 (ip), vehicle: Klucel (hydroxypropylcellulose) (HPC) 106 % of control | dose: 200.0 mg/kg/injection, schedule: Q01DX001 (ip), vehicle: Klucel (hydroxypropylcellulose) (HPC) 101 % of control | dose: 400.0 mg/kg/injection, schedule: Q01DX001 (ip), vehicle: Klucel (hydroxypropylcellulose) (HPC) 111 % of control

C[Si]1(C)CCCSC1
inactive: [9] 93 % of control | [10] 96 % of control | [11] 97 % of control

O=C(COc1cc(Cl)c(Cl)cc1Cl)OCCOc1cc(Cl)c(Cl)cc1Cl
inactive: dose: 7.5 mg/kg/injection, schedule: Q01DX001 (ip), vehicle: saline 97 % of control | dose: 15.0 mg/kg/injection, schedule: Q01DX001 (ip), vehicle: saline 95 % of control | dose: 30.0 mg/kg/injection, schedule: Q01DX001 (ip), vehicle: saline 93 % of control

O=C1NC(=O)C(=Cc2cc(Br)ccc2[N+](=O)[O-])C(=O)N1
inactive: [13] 91 % of control | [14] 104 % of control | [15] 91 % of control

CCCCN(C)/N=N/c1nc[nH]c1C(=O)OCC
inactive: [13] 96 % of control | [14] 109 % of control | [15] 124 % of control

O=C(O)C1CCC1(C(=O)O)C(=O)O (stereo not given)
inactive: [16] 94 % of control | [17] 90 % of control | [18] 94 % of control

CC(C)CCN
inactive: [9] 115 % of control | dose: 100.0 mg/kg/injection, schedule: Q01DX009 (ip), vehicle: saline 98 % of control and 104 % of control | [16] 102 % of control and 103 % of control | dose: 100.0 mg/kg/injection, schedule: Q04DX003 (ip), vehicle: saline 98 % of control | [10] 112 % of control | dose: 200.0 mg/kg/injection, schedule: Q01DX009 (ip), vehicle: saline 107 % of control and 112 % of control | [17] 103 % of control and 108 % of control | dose: 200.0 mg/kg/injection, schedule: Q04DX003 (ip), vehicle: saline 98 % of control | [11] 107 % of control | dose: 400.0 mg/kg/injection, schedule: Q01DX009 (ip), vehicle: saline 114 % of control and 117 % of control | [18] 101 % of control and 102 % of control | dose: 400.0 mg/kg/injection, schedule: Q04DX003 (ip), vehicle: saline 112 % of control

Cc1ccc(NC(=O)c2ccc(C)c(NC(=O)C(F)(F)F)c2)c(C)c1
inactive: dose: 50.0 mg/kg/injection, schedule: Q04DX003 (ip), vehicle: Klucel (hydroxypropylcellulose) (HPC) 97 % of control | [12] 100 % of control | [19] 95 % of control

CCCCCCCCCCCCCCOc1ccc(C(=O)CC(=O)OC)cc1
inactive: [12] 90 % of control | [19] 98 % of control | [20] 90 % of control

COC(=O)c1ccc(OCCOc2ccc(C(C)(C)CC(C)(C)C)cc2)c(N)c1
inactive: dose: 100.0 mg/kg/injection, schedule: Q01DX009 (ip), vehicle: Klucel (hydroxypropylcellulose) (HPC) 97 % of control | dose: 200.0 mg/kg/injection, schedule: Q01DX009 (ip), vehicle: Klucel (hydroxypropylcellulose) (HPC) 105 % of control | dose: 400.0 mg/kg/injection, schedule: Q01DX009 (ip), vehicle: Klucel (hydroxypropylcellulose) (HPC) 91 % of control

[Cl][Pt+2][Cl].[NH-]C(CCCN)C(=O)O.[NH-]C(CCCN)C(=O)O (stereo not given)
inactive: dose: 50.0 mg/kg/injection, schedule: Q04DX003 (ip), vehicle: saline with Tween-80 103 % of control | [3] 104 % of control and 115 % of control | [4] 97 % of control and 102 % of control

CCO[Si](C)(C)CCl
inactive: [9] 98 % of control | [10] 101 % of control | [11] 106 % of control

COc1ccc(C(=O)c2no[n+]([O-])c2C(=O)c2ccc(OC)cc2)cc1
inactive: [3] 90 % of control | [4] 94 % of control

CN(C)CCC(=O)c1ccc(-c2ccccc2)cc1
inactive: [12] 97 % of control | [19] 97 % of control

COC(=O)CC(=O)c1ccc(OCCOc2ccc(C(C)(C)CC(C)(C)C)cc2)c([N+](=O)[O-])c1
inactive: dose: 100.0 mg/kg/injection, schedule: Q01DX009 (ip), vehicle: saline sonified 91 % of control | [12] 93 % of control | dose: 200.0 mg/kg/injection, schedule: Q01DX009 (ip), vehicle: saline sonified 96 % of control | [19] 96 % of control | dose: 400.0 mg/kg/injection, schedule: Q01DX009 (ip), vehicle: saline sonified 95 % of control | [20] 93 % of control

CCOC(=O)/C(C(N)=O)=C(/C)C=C(C)C
inactive: dose: 10.0 mg/kg/injection, schedule: Q01DX001 (ip), vehicle: acetone 101 % of control | dose: 20.0 mg/kg/injection, schedule: Q01DX001 (ip), vehicle: acetone 100 % of control

Cc1cc(C(C)(C)c2cc(C)c(O)c(C)c2)cc(C)c1O
inactive: [6] 95 % of control | [3] 105 % of control | [7] 93 % of control | [4] 102 % of control | [8] 97 % of control | [5] 96 % of control

O=C(O)c1cc(C(=O)Nc2cccc3ccccc23)c(C(=O)O)cc1C(=O)Nc1cccc2ccccc12
inactive: [6] 96 % of control and 87 % of control | [2] 104 % of control and 116 % of control | [3] 100 % of control | [7] 97 % of control and 91 % of control | [21] 94 % of control and 103 % of control | [4] 105 % of control | [8] 100 % of control and 92 % of control | [22] 93 % of control and 89 % of control | [5] 98 % of control

COC(=S)Nc1cccc(OC(=O)NC(C)C)c1
inactive: dose: 100.0 mg/kg/injection, schedule: Q01DX001 (ip), vehicle: saline with Tween-80 97 % of control | dose: 200.0 mg/kg/injection, schedule: Q01DX001 (ip), vehicle: saline with Tween-80 95 % of control | dose: 400.0 mg/kg/injection, schedule: Q01DX001 (ip), vehicle: saline with Tween-80 100 % of control

CC(=O)CCc1ccccc1
inactive: [13] 101 % of control | [14] 103 % of control | [15] 101 % of control

N#Cc1ccccc1C(N)=O
inactive: dose: 12.5 mg/kg/injection, schedule: Q04DX002 (ip), vehicle: saline 107 % of control | dose: 25.0 mg/kg/injection, schedule: Q04DX002 (ip), vehicle: saline 98 % of control | dose: 50.0 mg/kg/injection, schedule: Q04DX002 (ip), vehicle: saline 102 % of control | [16] 90 % of control

O/N=C/c1c(O)cccc1Cl
inactive: dose: 75.0 mg/kg/injection, schedule: Q01DX001 (ip), vehicle: acetone 102 % of control | dose: 150.0 mg/kg/injection, schedule: Q01DX001 (ip), vehicle: acetone 91 % of control

COC(=O)C[CH2][Ge]([CH3])([CH3])[CH3]
inactive: dose: 6.25 mg/kg/injection, schedule: Q04DX002 (ip), vehicle: saline with Tween-80 89 % of control | dose: 12.5 mg/kg/injection, schedule: Q04DX002 (ip), vehicle: saline with Tween-80 96 % of control | [1] 96 % of control | [2] 95 % of control | [21] 95 % of control | [22] 93 % of control

NC(=O)C(Cl)CCl (stereo not given)
inactive: dose: 50.0 mg/kg/injection, schedule: Q04DX002 (ip), vehicle: Klucel (hydroxypropylcellulose) (HPC) 104 % of control | dose: 100.0 mg/kg/injection, schedule: Q04DX002 (ip), vehicle: Klucel (hydroxypropylcellulose) (HPC) 101 % of control | dose: 200.0 mg/kg/injection, schedule: Q04DX002 (ip), vehicle: Klucel (hydroxypropylcellulose) (HPC) 104 % of control
